The text below walks through data of US11351176B2, “Combination therapy” (MEI Pharma, Inc., priority 2017, dated 2022).

Series [1] concerns relapsed B-cell Non-Hodgkin's Lymphoma (NHL), including Chronic Lymphocytic Leukemia (CLL). Description: Phase 1b study of Compound A35 and rituximab in patients with relapsed B-cell malignancies. Type of series: in vivo, human. How it is done:
Study of a Combination of a PI3K Inhibitor and a CD20 Inhibitor in Patients with Relapsed B-Cell Non-Hodgkin's Lymphoma (NHL), Including Chronic Lymphocytic Leukemia (CLL)
The purpose of this study is to evaluate the safety and effectiveness of Compound A35 (single dose: 60 mg/day) and rituximab, in patients with relapsed B-cell malignancies.
• Study Type: Interventional • Study Design: Intervention Model: Single Group Assignment • Masking: No masking • Primary Purpose: Treatment
Primary Outcome Measures: • Determine Acceptable Adverse Events That Are Related to Treatment [Time Frame: 6 months of therapy]. To determine the incidence of adverse events, any potential abnormal laboratory results and any dose-limiting toxicities Secondary Outcome Measures: • Efficacy of Compound A35 with Rituximab as assessed by Overall Response (OR) [Time Frame: 2 years]. The efficacy of Compound A35 with Rituximab will be determined by the overall response of subjects calculated as the percent of subjects achieving a complete remission (CR) or a complete remission with incomplete marrow recovery (CRi) or a partial response (PR) according to the International Workshop on Chronic Lymphocytic Leukemia (IWCLL). • Evaluate the PK of Compound A35 with Rituximab (AUC) [Time Frame: 2 years] Determined by the Area Under the Concentration time curve (AUC) • Evaluate the PK of Compound A35 with Rituximab (Cmax) [Time Frame: 2 years] Determined by Peak Plasma Concentration (Cmax)
Eligibility • Ages Eligible for Study: 18 Years and older (Adult, Senior) • Sexes Eligible for Study: All • Accepts Healthy Volunteers: No Criteria Inclusion Criteria: • Diagnosis of relapsed/refractory CLL SLL or FL, MZL, DLBCL and high-grade B-cell lymphoma.
Dosing of Compound A35 is done on a continuous dosing schedule (CS) or an intermittent dosing schedule (IS). On an IS, patients take 60 mg administered once a day on 7 consecutive days followed by 21 days without therapy, with cycles repeated every 28 days. On a CS, patients take 60 mg/day for the entirety of a 28 day cycle. All patients are started on a CS dosing regimen. Patients who complete two cycles of CS are switched to the IS.
In all cases, the dosing of rituximab is 375 mg/m2, administered for a total of 8 doses in 6 months.
15 patients were treated with a regimen consisting of rituximab 375 mg/m^2×8 doses over 6 months and Compound A35 at 60 mg on the CS for 2 cycles then switching to the IS.

Series [2] deals with relapsed chronic lymphocytic leukemia (CLL). To be noted: combination of idelalisib and a CD20 inhibitor (e.g., rituximab or ofatumumab); cited from earlier work.

On to `CN1CCC(c2ccccc2CC(C)(C)Nc2nc(N3CCOCC3)nc(-n3c(C(F)F)nc4ccccc43)n2)CC1` [Compound A35], for which the “response (patients with a reported response)” value turned out to be 70% in series [1] (in combination with rituximab 375 mg/m2 x 8 doses in 6 months, Compound A35 60 mg/day continuous schedule (CS), indolent NHL (9 FL, 1 MZL), 7 of 10 patients) and 25% in series [1] (in combination with rituximab, Compound A35 60 mg/day, DLBCL, 1 of 4 patients). Moreover, the “disease progression on the IS among patients with a disease response after 2 cycles” value in series [1] (in combination with rituximab, 8 responders, median follow-up 5.2 months from enrollment) was “none”. Moreover, the “patients with disease progression, discontinued from the study” value in series [1] (in combination with rituximab, CS of Compound A35 60 mg/day, indolent NHL, 10 patients) is 1 patient. Moreover, the “rate of response (in words)” value in series [1] (in combination with rituximab, CS, patients) was “very high rate of response”; in series [1] (in combination with rituximab, patients with relapsed indolent NHL and CLL/SLL), “very high rate of response”. Also, the “patients discontinued due to disease progression” value in series [1] (in combination with rituximab, Compound A35 60 mg/day, DLBCL, 4 patients) is given as 3 patients. Besides, the “patients who developed delayed immune-related toxicity” value in series [1] (in combination with rituximab, after 2 cycles CS switched to intermittent schedule (IS, 60 mg 7 days on/21 days off), 1/10 patients, median follow-up 3.4 months on the IS) turned out to be 10%. In addition, the “effect of the IS on delayed onset immune toxicities and efficacy (in words)” value in series [1] (in combination with rituximab, intermittent schedule after 2 CS cycles, preliminary data) is listed as “appears to reduce the incidence of delayed onset immune toxicities without erosion in treatment efficacy”. In addition, the “durability of responses (in words)” value in series [1] (in combination with rituximab, relapsed indolent NHL and CLL/SLL) is reported as “appear durable”.
`CC[C@H](Nc1ncnc2[nH]cnc12)c1nc2cccc(F)c2c(=O)n1-c1ccccc1` [idelalisib]: in series [2], the “risk of death due to infection and/or severe adverse effects (in words)” value is reported as “alarming increase in the risk of death due to infection and/or severe adverse effects”.
